The test system of data set [1] is pentetrazol induced epilepsy in rats. Nature of the data set: Pentetrazol induced epilepsy assay. The conditions noted are these: rat, subcutaneous 1, 3, 10 and 15 mg/kg, 100 mg/kg pentetrazol 0.5 hour later. It counts as in vivo. As for the experimental part:
Pentetrazol induced epilepsy assays: firstly, C5 or 70% PGE400 was injected to rats, and then 100 mg/kg pentetrazol was subcutaneously injected to rats half an hour later. Pentetrazol was dissolved in saline water. Then the convulsive response of rats was observed. Fatholahi standard was adopted to score the convulsive response. Grade 0, no response; Grade 1, rhythmic mouth and face spasm; Grade 2, fluctuating wandering spasm of body; Grade 3, systemic myoclonus and warped hip; Grade 4, body turning to one side; Grade 5, renvers and systemic tetanic convulsion. It took 30 minutes for observation after administration. The highest grade and the latency time from pentetrazol injection to the induction of the highest grade were collected.

Data set [2] relates to SNI model rats (neuropathic pain). Nature of the data set: Spared nerve injury (SNI) model, neuropathic pain, mechanical pain threshold. It counts as in vivo. The conditions noted are these: rat. As for the experimental part:
Male SD rats (200-250 g) were used, 6 per group in the cage. All the animals were placed under 12 hours light/cycle (i.e. 12 hours light and 12 hours dark in each day), free to food and water. All the experiments were conducted under the condition that the observers were blind to pharmaceutical treatment.
Spared nerve injury model (SNI): 10% chloral hydrate was injected intraperitoneally to anesthetize rats. […] The muscle was longitudinally separated to expose the core of sciatic nerve and the branching below: tibial nerve, common peroneal nerve and sural nerve. The tibial nerve and common peroneal nerve were ligatured and cut and small sural nerve was retained, meanwhile preventing any injury. The muscle and skin were sutured layer by layer, and then antibiotics were injected intraperitoneally for antibacterial purpose. For detailed methods, please refer to Decosterd I and Woolf C J. Spared nerve injury: an animal model of persistent peripheral neuropathic pain. 2000 August; Pain 87(2):149-58.
Method for detecting mechanical hyperalgesia in rats: firstly CFA solution was injected in the thenar of rats. After 24 hours, mechanical hyperalgesia quantitative detection was adopted to measure the paw withdrawal of rats to normal and harmless mechanical stimulation. Evaluation was conducted according to reference (Chaplan S R et al., Quantitative assessment of tactile allodynia in the rat paw. J Neurosci Methods. 1994 July; 53(1):55-63). In this method, the von Frey fibers with different bending force (equivalent to the range of 1-50 g force) were used to apply harmless mechanical stimulation. The rats were placed in organic glass box with metal mesh plate, and the von Frey fibers were applied on the surface of leg thenar. The von Frey fibers were applied vertically to the surface of thenar to generate the force that will trigger slight resistance to the leg. 2-3 seconds were maintained for every leg thenar. If the leg withdrew suddenly, positive records were recorded. The threshold was the mean of the weight that caused 50% paw withdrawal response (5-6 paw withdrawal/10 stimulations) in overall 10 stimulations.
Compounds MRK 016, C2, C3, C4, C5, C6, C7, C8 or α5IA (A5I) were dissolved in 70% PGE400 (PGE400:water=70:30 in volume). For injection dose, MRK016 was 2 mg/kg body weight; A5I was 3 mg/kg body weight; C2, C3, C4, C5, C6, C7 and C8 were 3 mg/kg body weight.
MRK016-M3 was dissolved in 90% PGE400 (PGE400:water=90:10 in volume). The doses were 10 mg/kg, 3 mg/kg, 1 mg/kg and 0.3 mg/kg, respectively for oral administration.
The method for behavioral data statistics was unpaired t-test. *, p<0.05, represents significant difference.

For data set [3], the system named is CFA induced inflammatory pain model rats (mechanical pain). Put plainly: CFA induced inflammatory pain model, mechanical pain threshold. To be noted: rat, 1 hour after administration. It counts as in vivo.
Data set [4] has as its system CFA induced inflammatory pain model rats (heat pain). Nature of the data set: CFA induced inflammatory pain model, heat pain threshold. It counts as in vivo. To be noted: rat, 1 hour after administration.
Data set [5] deals with T1, Human recombinant GABAA receptor containing α1 subunit (α1, β3, γ2) (Homo sapiens, UniProt P14867+P18507).
T1 construct: expressed in transfected cells; host or cells: 293 cell line
Put plainly: Competitive radioligand binding ([3H]Ro-0151788) on membranes of 293 cells, Ki. To be noted: human recombinant GABAA subtype containing α1; read-out: Affinity, nM (α1). As for the experimental part: (§1) Different subunits of GABAA receptor were expressed in cell lines, including human kidney epithelial cell line, 293 cell line or L(tk−) cell line. The cells were cultured in medium, and such cells were used as the cellular model for screening drugs to suppress pain. a subunit, β subunit and γ subunit are indispensable for one complete functional GABAA receptor.
(§2) In this example, the inventors established the following cellular models:
(§3) (b) simultaneously expressing α1 subunit (GenBank accession number: NM_001127648.1), β3 subunit and γ2 subunit in 293 cell line, forming the GABAA receptor containing α1 subunit; • (c) simultaneously expressing α2 subunit (for the protein sequence, see GenBank accession number NM_000813.2), β3 subunit and γ2 subunit in 293 cell line, forming the GABAA receptor containing α2 subunit;
(§4) Each of the (a) to (d) above could form a GABAA receptor with complete function.
(§5) Then, the cellular membrane was extracted and the protein concentration was measured. The competitive binding of the substances to be measured and radiolabelled compounds (e.g. 1 nM [^3H]Ro-0151788) were detected respectively to calculate the Ki value of the substances to be measured, see the method described in literature (Ballard T M et al., RO4938581, a novel cognitive enhancer acting at GABAA alpha5 subunit-containing receptors. Psychopharmacology (Berl). 2009 January; 202(1-3): 207-23). If the binding inhibition constant Ki (nM) of α5-GABAA receptor with the candidate substances in experimental group is less than the Ki of the receptor containing other a subunit (α1 subunit, α2 subunit or α3 subunit), then the candidate substance is a potential drugs for preventing, relieving or treating pain. Many methods can be used by those skilled in the art to evaluate the binding capacity of the ligand of α5-GABAA receptor to the α5-GABAA receptor, including but not limiting to the method above.

The target in data set [6] is T2, Human recombinant GABAA receptor containing α2 subunit (α2, β3, γ2) (Homo sapiens, UniProt P18507+P47869).
T2 construct: expressed in transfected cells; host or cells: 293 cell line
The data set is described as above. The conditions noted are these: human recombinant GABAA subtype containing α2; read-out: Affinity, nM (α2). As for the experimental part:
as §1, §2, §3, §4, §5

The subject of data set [7] is α5-GABAA receptor in central nervous system. The conditions noted are these: in vivo, Jones et al. 2006; cited from earlier work.
Data set [8] addresses T3, Human recombinant α5-GABAA receptor (Homo sapiens, UniProt P18507+P31644).
T3 construct: expressed in transfected cells; host or cells: 293 cell line
Nature of the data set: Electrophysiological inverse agonist efficacy on GABA-induced current. The conditions noted are these: change of GABA-induced current; negative = inhibition. It counts as cell-based. As for the experimental part:
as §1
(§6) (a) simultaneously expressing α5 subunit (for the protein sequence, see GenBank accession number NM_001165037.1), β3 subunit (for the protein sequence, see GenBank accession number NM_021912.4) and γ2 subunit (for the protein sequence, see GenBank accession number NM_198904.2) in 293 cell line, forming the GABAA receptor containing α5 subunit;
(§7) The inventors used electrophysiological methods to measure the inverse agonist efficacy of the substances to be measured, see the method described in literature (Ballard T M et al., RO4938581, a novel cognitive enhancer acting at GABAA alpha5 subunit-containing receptors. Psychopharmacology (Berl). 2009 January; 202 (1-3): 207-23). […] Many methods can be used by those skilled in the art to evaluate the binding capacity of the ligand of α5-GABAA receptor to the α5-GABAA receptor, including but not limiting to the method above.
(§8) Inverse agonist efficacy represents the inhibition percentage of the candidate substance on the current induced by GABA through α5-GABAA receptor=(the current intensity induced by GABA through α5-GABAA receptor with the existence of candidate substance−the current intensity induced by GABA through α5-GABAA receptor without the existence of candidate substance)/the current intensity induced by GABA through α5-GABAA receptor without the existence of candidate substance.

For data set [9] the following is noted: human, Phase I; cited from earlier work.
Data set [10] concerns the target T4, Human recombinant GABAA receptor containing α3 subunit (α3, β3, γ2) (Homo sapiens, UniProt P18507+P34903).
T4 construct: expressed in transfected cells; host or cells: 293 cell line
Nature of the data set: Competitive radioligand binding ([3H]Ro-0151788) on membranes of 293 cells, Ki. The conditions noted are these: human recombinant GABAA subtype containing α3; read-out: Affinity, nM (α3). As for the experimental part:
as §1, §2
(§9) (d) simultaneously expressing α3 subunit (for the protein sequence, see GenBank accession number NM_000808.3), β3 subunit and γ2 subunit in 293 cell line, forming the GABAA receptor containing α3 subunit;
as §4, §5

Data set [11] deals with T5, Human recombinant GABAA receptor containing α3 subunit (Homo sapiens, UniProt P18507+P34903).
T5 construct: expressed in transfected cells; host or cells: 293 cell line
Nature of the data set: Electrophysiological inverse agonist efficacy on GABA-induced current. Format: cell-based. To be noted: change of GABA-induced current; negative = inhibition. As for the experimental part:
as §1, §9, §7, §8

The target of data set [12] is T6, Human recombinant GABAA receptor containing α5 subunit (α5, β3, γ2) (Homo sapiens, UniProt P18507+P31644).
T6 construct: expressed in transfected cells; host or cells: 293 cell line
Nature of the data set: Competitive radioligand binding ([3H]Ro-0151788) on membranes of 293 cells, Ki. To be noted: human recombinant GABAA subtype containing α5; read-out: Affinity, nM (α5). As for the experimental part: as §1, §2, §6, §4, §5

Data set [13] deals with T7, Human recombinant GABAA receptor containing α1 subunit (Homo sapiens, UniProt P14867+P18507).
T7 construct: expressed in transfected cells; host or cells: 293 cell line
Put plainly: Electrophysiological inverse agonist efficacy on GABA-induced current. It counts as cell-based. To be noted: change of GABA-induced current; negative = inhibition. As for the experimental part: as §1, §3, §7, §8

Data set [14] relates to Human recombinant GABAA receptor containing α2 subunit. Described as above. It counts as cell-based. To be noted: change of GABA-induced current; negative = inhibition. As for the experimental part: as §1, §3, §7, §8
Data set [15] has as its target T3, Human recombinant α5-GABAA receptor. The conditions noted are these: Jones et al. 2006; cited from earlier work.

Entries after “also recorded” stand apart in the source; their conditions may differ.

Take `OCc1cc(-c2nnc3c4ccccc4c(OCc4ccccn4)nn23)no1` [Compound C5, {3-[6-(Pyridin-2-ylmethoxy)-[1,2,4]triazolo[3,4-a]phthalazin-3-yl]-isoxazol-5-yl}-methanol]: the “Effect on pentetrazol induced epilepsy (responsive grade and latency time)” value in data set [1] is given as “no effect”. Further, the “Neuropathic pain (SNI model), analgesic effect” value in [2] (3 mg/kg subcutaneous, 14 days after SNI, 1 hour after administration, 3 mg/kg) is on record as “efficiently inhibit nociceptive response; also recorded: efficiently suppressed neuropathic pain”. Further, in data set [2] (subcutaneous 1 mg/kg or 3 mg/kg, 14 days after SNI, 0.5-12 hours after administration), the “Suppression of neuropathic pain at different time points” value is “efficiently could inhibit nociceptive response; also recorded: efficiently suppressed neuropathic pain”. Further, the “CFA induced inflammatory pain model (mechanical pan), analgesic effect” value in data set [3] (3 mg/kg injection, 7 days after CFA, 3 mg/kg) is “efficiently inhibit nociceptive response; also recorded: efficiently suppressed heat pain or mechanical pain response”. Moreover, the “CFA induced inflammatory pain model (heat pain), analgesic effect” value in data set [4] (3 mg/kg injection, 3 days after CFA, 3 mg/kg) was “efficiently inhibit nociceptive response; also recorded: efficiently suppressed heat pain or mechanical pain response”.

Turning to `Cc1cc(-c2nncc3c(C(C)(C)C)c(OCc4ncnn4C)nn23)no1` [MRK016, 3-tert-butyl-7-(5-methylisoxazol-3-yl)-2-(1-methyl-1H-1,2,4-triazol-5-ylmethoxy)-pyrazolo[1,5-d]-[1,2,4]triazine], the Ki in data set [5] turned out to be 0.83 nM; in data set [6] it was 0.85 nM; in data set [10], 0.77 nM; in data set [12], 1.36 nM. The “Suppression of neuropathic pain (mechanical pain threshold)” value in data set [2] (subcutaneous injection 2 mg/kg, 7 days after SNI model, 1 hour after administration) is listed as “efficiently suppressed neuropathic pain”. Besides, in data set [3] (2 mg/kg intraperitoneal, 7 days after CFA model, 2 mg/kg), the “Suppression of mechanical pain” value was “efficiently suppressed mechanical pain; also recorded: efficiently suppress mechanical pain”. In addition, the “Binding to α5-GABAA receptor in brain / inhibition of (3H)Ro-15-1788 binding in center” value in data set [7] is given as “can efficiently inhibit; also recorded: focused in the brain”. Further, in data set [8], the “Inverse agonist efficacy, % (α5)” value is reported as −55%. Besides, the “Side effects in Phase I clinical trial” value in data set [9] is “front heaviness, headache and nausea and vomiting”. Further, in data set [11], the “Inverse agonist efficacy, % (α3)” value was −9%. The “Inverse agonist efficacy, % (α1)” value in [13] was −16%. The “Inverse agonist efficacy, % (α2)” value in data set [14] was found to be 6%. In data set [4] (2 mg/kg intraperitoneal, 3 days after CFA model, 2 mg/kg), the “Suppression of heat pain” value is recorded as “efficiently suppressed heat pain; also recorded: efficiently suppress heat pain”.

Regarding `Cc1cc(-c2nncc3c(C(C)(C)CO)c(OCc4ncnn4C)nn23)no1` [MRK016-M2], the “Inverse agonist effect of α5-GABAA receptor” value in data set [15] is given as “significant inverse agonist effect”. Further, the Ki in data set [5] came out at 26 nM; in data set [10], 9.8 nM; in data set [12] it was 9.4 nM. In addition, the “Binding to α5-GABAA receptor in brain / inhibition of (3H)Ro-15-1788 binding in center” value in [7] is reported as “not capable of binding the α5-GABAA receptor in brain”. Moreover, in data set [8], the “Inverse agonist efficacy, % (α5)” value is reported as −40%. For the same compound, the “Inverse agonist efficacy, % (α3)” value in data set [11] is recorded as −32%. Besides, in [13], the “Inverse agonist efficacy, % (α1)” value is reported as −41%. In addition, in data set [14], the “Inverse agonist efficacy, % (α2)” value is on record as −23%.

Values taken from patent publication US20150374705A1, “Substances for treatment or relief of pain” (Shanghai Institues for Biological Sciences, priority 2012, published 2015).
